Test results published in patent US20020055470A1, “Circumvention of human tumor drug resistance” (CITY OF HOPE, priority 1987, published 2002).
Several values for one entry are separate records, joined by “and”; a condition that tells them apart may be missing. Identical values can stand only once. Like-named read-outs stand apart in the source and are kept apart here.

What was measured:
Type in all cases: cell-based, human
[1] = test system: HCF-7 DDP; experiment: Inhibition of cell growth, Table VI; conditions: for EC50: HCF-7 DDP
Experimental: (§1) Table VI includes EC50 data further exemplifying the invention. The data reported by Table VI was obtained by substantially the same procedure as that described with respect to Table III. In Table VI, “(C)” indicates continuous exposure, “(1 h)” and “(2 h)” indicate exposure for 1 hour and 2 hours; “HU” indicates hydroxyurea.

[2] = test system: K562S; experiment: Inhibition of cell growth, Table VI
Experimental: as §1

[3] = test system: K562-araC; experiment: Inhibition of cell growth, Table VI; conditions: for EC50: K562-araC
Experimental: as §1

[4] = test system: K562-VP16; experiment: Inhibition of cell growth, Table VI
[5] = test system: A2780S; experiment: Inhibition of cell growth (cells counted on Coulter Counter after six days)
Experimental: The experiment was conducted in triplicate in the manner described with respect to Table I.
A2780 cells were well-plated (35 mm disnes) and 24 hours later the cells were treated with cisplatin for one hour, washed out and then treated with 6 concentrations of from 1 μM to 100 μM increased in equal increments of a nucleoside analog in saline. Cells were then washed and incubated for six days. The cells were counted on a Coulter Counter and the experiment was done in triplicate.
as §1

[6] = test system: A2780DDP; experiment: as above
Experimental: The experiment was conducted in triplicate in the manner described with respect to Table I. […]
as §1

[7] = test system: HCF7S; experiment: Inhibition of cell growth, Table VI
[8] = test system: HCT8S; experiment: Inhibition of cell growth (cells counted on Coulter Counter after six days)
Experimental: as §1

[9] = test system: HCT8DDP; experiment: as above
Experimental: as §1

[10] = test system: K562-DDP; experiment: Inhibition of cell growth, Table VI; conditions: K562-DDP
[11] = test system: A2780S; experiment: Dual labeled (14C/3H) DNA synthesis and degradation in response to cisplatin; conditions: cisplatin 20 μM
Experimental: A dual labeled (^14C/^3H) experiment was designed to measure simultaneously DNA synthesis and degradation in response to cisplatin. […] A2780S cells respond to cisplatin with a modest degradation (10%) of (^14C) DNA over 3 hrs. In contrast, A2780DDP degradation 40.5% of the (^14C) DNA in 3 hrs. […] Transplatin at equimolar concentrations (20 μM) had no influence on DNA synthesis or degradation in A2780 cells.

[12] = test system: A2780DDP; experiment: Dual labeled (14C/3H) DNA synthesis and degradation in response to cisplatin; incorporation of labelled nucleoside analogs; conditions: cisplatin 20 μM
Description: A dual labeled (^14C/^3H) experiment was designed to measure simultaneously DNA synthesis and degradation in response to cisplatin.

[13] = Homo sapiens, (C) continuous exposure
[14] = Homo sapiens, A2780S, (C) continuous exposure, read-out: EC50
[15] = Homo sapiens, A2780 DDP, (C) continuous exposure, read-out: EC50
[16] = Homo sapiens, (C) continuous exposure, read-out: EC50
[17] = Homo sapiens, HCT8-DDP, (C) continuous exposure, read-out: EC50
[18] = A2780S, (C) continuous exposure, read-out: EC50
[19] = A2780 DDP, (C) continuous exposure, read-out: EC50
[20] = (C) continuous exposure, read-out: EC50
[21] = HCT8-DDP, (C) continuous exposure, read-out: EC50

Nc1nc2c(ncn2COCCO)c(=O)[nH]1 [Acyclovir]
EC50 [1, 13]: > 300 µM | EC50 [2, 13]: > 300 µM | EC50 [3, 13]: > 300 µM | EC50 [4, 13]: > 300 µM | EC50 [5, 14]: > 300 µM | EC50 [6, 15]: > 300 µM | EC50 [7, 13]: > 300 µM | EC50 [8, 16]: > 300 µM | EC50 [9, 17]: > 300 µM | EC50 [10, 13]: > 300 µM

N.N.[Cl][Pt][Cl] [Cisplatin, cisplatin]
EC50 ([1]; (1h) exposure): 35 µM | fold resistance, cispt resistant vs sensitive MCF7 cells ([1]; MCF7 human breast cancer cells): 2.3 fold | EC50 ([2]; (1h) exposure): 6 µM | EC50 ([3]; (1h) exposure): 25 µM | EC50 ([4]; (1h) exposure): 15 µM | EC50 ([5]; A2780S, (1h) exposure, read-out: EC50): 7 µM | EC50 ([5]; treatment time 1 hr, proliferation during 6 days, mean + SD, read-out: EC50 A2780S): 7 µM | Ratio (degree of resistance or cross-resistance) ([6]; A2780DDP vs A2780S EC50, treatment time 1 hr): +12.8 | EC50 ([6]; A2780 DDP, (1h) exposure, read-out: EC50): 90 µM | fold resistance, cisplatin resistant vs sensitive A2780 cells ([6]; A2780 ovarian carcinoma cells): > 12 fold | EC50 ([6]; treatment time 1 hr, proliferation during 6 days, mean + SD, read-out: EC50 A2780DDP): 90 µM | degradation of (14C) DNA ([11]; A2780S, over 3 hrs): 10% | 14C-Tdr/DNA A2780S ([11]; treatment time 0 min): 6.49 | 14C-Tdr/DNA A2780S ([11]; treatment time 45 min): 6.21 | 14C-Tdr/DNA A2780S ([11]; treatment time 90 min): 5.71 | 14C-Tdr/DNA A2780S ([11]; treatment time 180 min): 6.06 | EC50 ([7]; (1h) exposure): 15 µM | EC50 ([8]; (1h) exposure, read-out: EC50): 30 µM | EC50 ([9]; HCT8-DDP, (1h) exposure, read-out: EC50): 100 µM | fold resistance, cispt resistant vs sensitive HCT8 cells ([9]; HCT8 human colon cancer cells): 2.7 fold | EC50 ([10]; (1h) exposure): 15 µM | degradation of (14C) DNA ([12]; A2780DDP, in 3 hrs): 40.5% | 14C-Tdr/DNA A2780DDP ([12]; treatment time 0 min): 17.78 | 14C-Tdr/DNA A2780DDP ([12]; treatment time 45 min): 14.44 | 14C-Tdr/DNA A2780DDP ([12]; treatment time 90 min): 12.59 | 14C-Tdr/DNA A2780DDP ([12]; treatment time 180 min): 10.57

Nc1ncnc2c1ncn2[C@@H]1O[C@H](CO)C[C@H]1O [Cordicpin]
EC50 ([2]; (C) continuous exposure): 130 µM | EC50 ([3]; (C) continuous exposure): 67 µM | fold more sensitive, araC resistant vs sensitive K562 cells ([3]; K562 human leukemia cells): 2 fold | EC50 ([4]; (C) continuous exposure): 150 µM | EC50 [5, 18]: 70 µM | EC50 [6, 19]: 310 µM | EC50 ([7]; (C) continuous exposure): 130 µM | EC50 [8, 20]: 110 µM | EC50 [9, 21]: 95 µM | EC50 ([10]; (C) continuous exposure): 160 µM

Nc1nc(O)c2ncn(COC(CO)CO)c2n1 [Ganciclovir, ganciclovir]
EC50 [1, 13]: 50 µM | fold more sensitive, cispt resistant vs sensitive MCF7 cells ([1]; MCF7 human breast cancer cells): 4 fold | EC50 [2, 13]: 10 µM | EC50 [3, 13]: 20 µM | EC50 [4, 13]: 250 µM | EC50 [5, 14]: 110 µM | EC50 ([5]; Homo sapiens, A2780S, treated 24 h after plating, counted six days later, mean + SD, read-out: Ganciclovir EC50): 110 µM | fold more sensitive (lower concentration), cisplatin resistant vs sensitive A2780 cells ([6]; A2780DDP vs A2780S): 3-4 fold and 3.3 fold | EC50 [6, 15]: 30 µM | EC50 ([6]; Homo sapiens, A2780DDP, treated 24 h after plating, counted six days later, mean + SD, read-out: Ganciclovir EC50): 30 µM | EC50 [7, 13]: 200 µM | EC50 [8, 16]: 60 µM | EC50 ([8]; Homo sapiens, treated 24 h after plating, counted six days later, mean + SD, read-out: Ganciclovir EC50): 60 µM | fold more sensitive, cispt resistant vs sensitive HCT8 cells ([9]; HCT8 human colon cancer cells): 1.5 fold | EC50 [9, 17]: 40 µM | EC50 ([9]; Homo sapiens, HCT8DDP, treated 24 h after plating, counted six days later, mean + SD, read-out: Ganciclovir EC50): 40 µM | EC50 [10, 13]: 295 µM

NC(=O)NO [NU, hydroxyurea]
EC50 ([1]; (C) continuous exposure): 200 µM | EC50 ([2]; (C) continuous exposure): 40 µM | EC50 ([3]; (C) continuous exposure): 40 µM | EC50 ([4]; (C) continuous exposure): 40 µM | EC50 [5, 18]: 75 µM | EC50 [6, 19]: 60 µM | EC50 ([7]; (C) continuous exposure): 100 µM | EC50 [8, 20]: 100 µM | EC50 [9, 21]: 100 µM | EC50 ([10]; (C) continuous exposure): 140 µM

NC(=O)c1ncn([C@@H]2O[C@H](CO)[C@@H](O)[C@H]2O)n1 [Ribovirin]
EC50 ([2]; (C) continuous exposure): 62 µM | EC50 ([3]; (C) continuous exposure): 42 µM | EC50 ([4]; (C) continuous exposure): 55 µM | EC50 [5, 18]: 27 µM | EC50 [6, 19]: 45 µM | EC50 ([7]; (C) continuous exposure): 100 µM | EC50 [8, 20]: 70 µM | EC50 [9, 21]: 50 µM | EC50 ([10]; (C) continuous exposure): 75 µM
